Data as given in patent US6838456B2, “Condensed pyridoindole derivatives” (Lilly ICOS LLC, priority 2000, dated 2005).

Molecular target: human recombinant PDE5 (Homo sapiens, UniProt O76074)
Assay: Inhibitory effect on cGMP-PDE (one-step assay, 8-[H3]-cGMP)
Assay type: biochemical
Conditions: in vitro
Method: The compounds of structural formula (I) were tested for an ability to inhibit PDE5. The ability of a compound to inhibit PDE5 activity is related to the IC50 value for the compound, i.e., the concentration of inhibitor required for 50% inhibition of enzyme activity. The IC50 value for compounds of structural formula (I) were determined using recombinant human PDE5.
cGMP-PDE activity of compounds of the present invention was measured using a one-step assay adapted from Wells et al., Biochim. Biophys. Acta, 384, 430 (1975). The reaction medium contained 50 mM Tris-HCl, pH 7.5, 5 mM magnesium acetate, 250 μg/ml 5′-Nucleotidase, 1 mM EGTA, and 0.15 μM 8-[H^3]-cGMP. Unless otherwise indicated, the enzyme used was a human recombinant PDE5 (ICOS Corp., Bothell, Wash.).
Compounds of the invention were dissolved in DMSO finally present at 2% in the assay.

| SMILES | IC50 [nM] |
| --- | --- |
| CCOC(=O)c1c(C(=O)OCC)c2n(c1C)[C@H](c1ccc3c(c1)OCO3)c1[nH]c3ccccc3c1C2 [Example 1, (R)-5-Benzo[1,3]dioxol-5-yl-3-methyl-6,11-dihydro-5H-indolizino[6,7-b]indole-1,2-dicarboxylic acid diethyl ester] | 5.6 |
| CCOC(=O)c1cc(CNCc2ccccc2)n2c1Cc1c([nH]c3ccccc13)C2c1ccc2c(c1)OCO2 (stereo not drawn) [Example 6] | 10 |
| CCOC(=O)c1cc(CN)n2c1Cc1c([nH]c3ccccc13)C2c1ccc2c(c1)CCO2 (stereo not drawn) [Example 8] | 40 |
| c1ccc2c3c([nH]c2c1)C(c1ccc2c(c1)OCO2)n1cccc1C3 (stereo not drawn) [Example 10] | 140 |
| CCOC(=O)c1c(C(=O)OCC)c2n(c1CC)C(c1ccc3c(c1)OCO3)c1[nH]c3ccccc3c1C2 (stereo not drawn) [Example 12] | 10 |
| CCOC(=O)c1c(C(=O)O)c(CC)n2c1Cc1c([nH]c3ccccc13)C2c1ccc2c(c1)OCO2 (stereo not drawn) [Example 13] | 5.9 |
| O=C(NCC1CCCO1)c1ccn2c1Cc1c([nH]c3ccccc13)C2c1ccc2c(c1)OCO2 (stereo not drawn) [Example 14] | 5.8 |
| CCOC(=O)c1c(C(=O)OCC)c(C(C)C)n2c1Cc1c([nH]c3ccccc13)C2c1ccc2c(c1)OCO2 (stereo not drawn) [Example 15] | 190 |
| CN1CCC(N(C)C(=O)c2ccn3c2Cc2c([nH]c4ccccc24)C3c2ccc3c(c2)OCO3)CC1 (stereo not drawn) [Example 16] | 330 |
| O=C(NCCn1cccn1)c1ccn2c1Cc1c([nH]c3ccccc13)C2c1ccc2c(c1)OCO2 (stereo not drawn) [Example 17] | 8 |
| CCOC(=O)c1cc(CO)n2c1Cc1c([nH]c3ccccc13)C2c1ccc2c(c1)OCO2 (stereo not drawn) [Example 18] | 10 |
| CCOC(=O)c1cc(C(C)C)n2c1Cc1c([nH]c3ccccc13)C2c1ccc2c(c1)OCO2 (stereo not drawn) [Example 19] | 460 |
| O=C(NCc1cccc[n+]1[O-])c1ccn2c1Cc1c([nH]c3ccccc13)C2c1ccc2c(c1)OCO2 (stereo not drawn) [Example 20] | 1.5 |
| CCOC(=O)c1cn2c(c1C(=O)OCC)Cc1c([nH]c3ccccc13)C2c1ccc2c(c1)OCO2 (stereo not drawn) [Example 21] | 1.2 |
| O=C(O)C1CCN(C(=O)c2ccn3c2Cc2c([nH]c4ccccc24)C3c2ccc3c(c2)OCO3)CC1 (stereo not drawn) [Example 22] | 3 |
| CCOC(=O)c1cc(C=O)n2c1Cc1c([nH]c3ccccc13)C2c1ccc2c(c1)OCO2 (stereo not drawn) [Example 23] | 3.9 |
| O=C(NCCc1ccccn1)c1ccn2c1Cc1c([nH]c3ccccc13)C2c1ccc2c(c1)OCO2 (stereo not drawn) [Example 24] | 2.1 |
| O=C(NCc1cccnc1)c1ccn2c1Cc1c([nH]c3ccccc13)C2c1ccc2c(c1)OCO2 (stereo not drawn) [Example 25] | 5.9 |
| CN(C)CCNC(=O)c1ccn2c1Cc1c([nH]c3ccccc13)C2c1ccc2c(c1)OCO2 (stereo not drawn) [Example 26] | 110 |
| N#Cc1ccn2c1Cc1c([nH]c3ccccc13)C2c1ccc2c(c1)OCO2 (stereo not drawn) [Example 27] | 3.6 |
| O=C(NCc1ccccn1)c1ccn2c1Cc1c([nH]c3ccccc13)C2c1ccc2c(c1)OCO2 (stereo not drawn) [Example 28] | 3.7 |
| CN(C(=O)O)C(=O)c1ccn2c1Cc1c([nH]c3ccccc13)C2c1ccc2c(c1)OCO2 (stereo not drawn) [Example 29] | 3.8 |
| NCCNC(=O)c1ccn2c1Cc1c([nH]c3ccccc13)C2c1ccc2c(c1)OCO2 (stereo not drawn) [Example 30] | 10 |
| O=C(NCCN1CCOCC1)c1ccn2c1Cc1c([nH]c3ccccc13)C2c1ccc2c(c1)OCO2 (stereo not drawn) [Example 31] | 20 |
| CCOC(=O)c1ccn2c1Cc1c([nH]c3ccccc13)C2c1ccc2c(c1)OCO2 (stereo not drawn) [Example 35] | 5.5 |
| O=C(O)c1ccn2c1Cc1c([nH]c3ccccc13)C2c1ccc2c(c1)OCO2 (stereo not drawn) [Example 36] | 10 |
| CCc1cc(C(=O)NCc2ccccn2)c2n1C(c1ccc3c(c1)OCO3)c1[nH]c3ccccc3c1C2 (stereo not drawn) [Example 53] | 50 |
